The source of these data is the Deep4Chem optical property database.

The data set can be described thus: solvent given as SMILES.

`c1ccc(-c2cn3ccc[n+]3[n-]2)cc1`: the emission maximum (in ClCCl) is 419 nm.

For the compound `CCC[Si](CCC)(CCC)c1cc2ccc3cccc4ccc(c1C(=O)NC(C)(C)C)c2c34`, the emission maximum (in ClC(Cl)Cl) is 383 nm.

Regarding `Cc1cccc(C)c1N1C(c2ccccc2)=Cc2cccc[n+]2[B-]1(F)F`, the emission maximum (in ClCCl) came to 453 nm.

`CN(C)c1ccc(-c2ncnc3ccccc23)cc1`: the emission maximum by setting is: (in C1CCCCC1) 421 nm; (in C1CCOC1) 483 nm; (in CC#N) 529 nm; (in CS(C)=O) 543 nm; (in ClCCl) 490 nm.

Compound `CC(=O)c1c(N[C@@H](Cc2ccccc2)C(=O)O)c2ccc(N(C)C)cc2oc1=O` had an emission maximum (in ClCCl) of 450 nm.

For the compound `O=S(=O)([O-])c1cccc2c(O)cccc12`, for the setting “in O”, the emission maximum was 426 nm.

With `Cc1ccc(-c2cc(-c3ccc(N(C)C)cc3)c3c(N)nc(N4CCCC4)c(C#N)c3n2)cc1`, the emission maximum runs as follows: (in CC#N) 514 nm; (in CC(C)=O) 511 nm; (in CC(C)O) 506 nm; (in CO) 517 nm; (in ClC(Cl)Cl) 496 nm; (in ClCCl) 503 nm. The same compound returned an emission maximum (in c1ccccc1) of 500 nm.

Regarding `CC1=[N+]2C(=C(Oc3cc(C)c4c(c3)CC[C@@](C)(CCC[C@H](C)CCC[C@H](C)CCCC(C)C)O4)c3ccc(C)n3[B-]2(F)F)C=C1c1cc2n(c1)[B-](F)(F)[N+]1=CC=CC1=C2c1c(C)cc(C)cc1C`, the emission maximum is, setting by setting: (in C1CCCCC1) 632 nm; (in CCOC(C)=O) 662 nm.

Consider `CCN(CC)c1ccc2cc(/C=C/c3cccc[n+]3CCCS(=O)(=O)[O-])c(=O)oc2c1`, for which the emission maximum runs as follows: (in C1CCOC1) 641 nm; (in CC#N) 634 nm; (in CC(C)=O) 639 nm; (in CS(C)=O) 642 nm; (in Cc1ccccc1) 641 nm; (in O) 627 nm. Under “in OCC(O)CO”, this compound came in with an emission maximum of 625 nm.

Regarding `CCCCCCCCCCCCN1C(=O)c2c(c3ccc4cc(-c5ccc(C=O)cc5)c(OC)cc4c3c3c2ccc2cc(-c4ccc(C=O)cc4)c(OC)cc23)C1=O`, for the setting “in ClCCl”, the emission maximum is 523 nm.

Turning to `CC(C)(C)c1cc(/C2=C3\C=CC(=N3)/C(c3ccc([N+](=O)[O-])cc3)=c3/cc/c([nH]3)=C(\c3ccc([N+](=O)[O-])cc3)C3=N/C(=C(/c4cc(C(C)(C)C)cc(C(C)(C)C)c4)c4cc2c[nH]4)C=C3)cc(C(C)(C)C)c1`, the emission maximum (in CC(=O)N(C)C) is 717 nm.

Regarding `CCCCC1(CCCC)c2cc(C#Cc3ccc(C=C4c5ccccc5C=Cc5ccccc54)cc3)ccc2-c2ccc(C#Cc3ccc(C=C4c5ccccc5C=Cc5ccccc54)cc3)cc21`, the emission maximum (in C1CCOC1) amounted to 405 nm.

With `c1cnc(-c2c3ccccc3c(-c3ncccn3)c3ccccc23)nc1`, the emission maximum reads like this: (in CCO) 440 nm; (in ClCCl) 439 nm.

With `CC1CCC(=CS/C=C/c2ccc(-c3ccc(/C=C/SC=C4CCC(C)CC4)cc3)cc2)CC1` (stereo unspecified), the emission maximum (in ClCCl) is on record as 432 nm.

For the setting “in Cc1ccccc1”, `Oc1ccccc1-c1nc2c3ccccc3c3ccccc3c2n1-c1ccccc1` had an emission maximum of 369 nm.

Consider `CC(C)(C)C1Nc2ccccc2C(=O)N1Cc1ccccc1` (stereo unspecified), for which the emission maximum runs as follows: (in CC#N) 409 nm; (in CCCCCCCCCCCCCCCC) 381 nm; (in CO) 439 nm; (in ClC(Cl)Cl) 404 nm; (in c1ccccc1) 393 nm.

Turning to `O=c1oc2ccccc2c(O)c1C(CC(O)c1ccc(-c2ccc(Br)cc2)cc1)c1ccccc1` (stereo unspecified), the emission maximum by setting is: (in CC#N) 403 nm; (in CCO) 392 nm; (in CO) 394 nm; (in O) 397 nm.

`CCCCCCCCCCCCOc1cc2c3cc(OCCCCCCCCCCCC)c(OCCCCCCCCCCCC)cc3c3c(cc(OCCCCCCCCCCCC)c4nc5cc(C#Cc6ccc(OCCCCCCCC)cc6)c(C#Cc6ccc(OCCCCCCCC)cc6)cc5nc43)c2cc1OCCCCCCCCCCCC` registered an emission maximum (in ClC(Cl)Cl) of 657 nm.

Consider `c1ccc(-c2nc(-c3ccccn3)sc2N(c2ccccc2)c2ccccc2)cc1`, for which the emission maximum (in ClC(Cl)Cl) amounted to 482 nm.

For the setting “in C1CCOC1”, `c1ccc(-n2c(-c3ccccc3-n3c4ccccc4c4ccccc43)nc3ccccc32)cc1` registered an emission maximum of 396 nm.

For `Cc1cc(C)c([B-]2(c3c(C)cc(C)cc3C)[O+]=P(c3ccccc3)(c3ccccc3)c3ccsc3-c3sccc32)c(C)c1`, the emission maximum (in C1CCOC1) is 429 nm.

`Cc1ccccc1C` came in with an emission maximum (in C1CCCCC1) of 291.38 nm.

In the case of `Oc1ccc(-c2nc(-c3ccccc3)c(-c3ccccc3)[nH]2)cc1`, the emission maximum (in CO) turned out to be 400 nm.

`CCC1(CC)c2ccccc2-c2c1c1c(c3c2C(CC)(CC)c2cc(/C=C/c4cccs4)ccc2-3)C(CC)(CC)c2cc(/C=C/c3cccs3)ccc2-1` gave an emission maximum (in C1CCOC1) of 397 nm.

For `CC1=N/C(=C\c2ccncc2)C(=O)N1C`, the emission maximum is, setting by setting: (in C1COCCO1) 439 nm; (in CC#N) 452 nm; (in CCO) 453 nm; (in CCOC(C)=O) 442 nm; (in O) 464 nm.

On to `CCCN1/C(=C/C=C/C=C/C2=[N+](CCC)c3ccccc3C2(C)C)C(C)(C)c2ccccc21`, for which the emission maximum (in CO) was found to be 659 nm, the emission maximum (in CS(C)=O) was determined as 660 nm and the emission maximum (in O) amounted to 652 nm.

On to `CCCC1(CCC)c2ccccc2-c2ccc(-c3ccc4c(c3)C(CCC)(CCC)c3cc(-c5ccc6c(c5)C(CCC)(CCC)c5ccccc5-6)ccc3-4)cc21`, for which, for the setting “in C1CCCCC1”, the emission maximum turned out to be 396 nm.

On to `Cc1ccc(C2=C3C=C(I)C=[N+]3[B-](F)(F)n3cccc32)cc1`, for which the emission maximum runs as follows: (in C1CCCCC1) 540 nm; (in CC#N) 546 nm; (in CCO) 547 nm; (in CCOC(C)=O) 543 nm; (in CO) 546.5 nm; (in OCC(F)(F)F) 538.5 nm.

Regarding `COc1ccc(OC)c(C(=O)O)c1`, the emission maximum (in CO) amounted to 388 nm.

In turn, `Cc1ccc(C2=C3C=C4C(=[N+]3[B-](F)(F)n3c2cc2c3-c3ccccc3C23c2ccccc2-c2ccccc23)c2ccccc2C42c3ccccc3-c3ccccc32)cc1` registered an emission maximum (in C1CCOC1) of 642 nm.

With `CC1(C)c2cc(/C=C/c3nc(/C=C/c4ccc5c(c4)C(C)(C)c4cc(N(c6ccccc6)c6ccc7ccccc7c6)ccc4-5)nc(/C=C/c4ccc5c(c4)C(C)(C)c4cc(N(c6ccccc6)c6ccc7ccccc7c6)ccc4-5)n3)ccc2-c2ccc(N(c3ccccc3)c3ccc4ccccc4c3)cc21`, under “in C1CCOC1”, the emission maximum came out at 440 nm.

For the compound `CCCCCN(c1ccccc1)c1ccc2c(c1)C(CC)(CC)c1cc(/C=C/c3ccc(/C=C(\C#N)C(=O)O)s3)ccc1-2`, the emission maximum by setting is: (in C1CCOC1) 597 nm; (in C1COCCO1) 618 nm; (in CC#N) 496 nm; (in CC(C)=O) 574 nm; (in CCOC(C)=O) 580 nm; (in CN(C)C=O) 504 nm. The emission maximum came to 517 nm (in CS(C)=O) and 584 nm (in ClCCl).

As for `O=C1OC(=O)c2ccc(N(c3ccccc3)c3ccc4ccc5cccc6ccc3c4c56)c3cccc1c23`, the emission maximum is, setting by setting: (in CCCCCC) 536 nm; (in c1ccccc1) 605 nm.

For the compound `CC(C)(C)c1ccc2c(c1)c1cc(C(C)(C)C)ccc1n2-c1ccc(C#Cc2ccc(C#Cc3ccc(-n4c5ccc(C(C)(C)C)cc5c5cc(C(C)(C)C)ccc54)cc3)cc2)cc1`, the emission maximum was found to be 470 nm (in CC#N); 385 nm (in CCCCC); 453 nm (in CO); 400 nm (in Cc1ccccc1); 419 nm (in ClC(Cl)Cl); 437 nm (in ClCCl).

`C(S/C=C/c1ccc(-c2ccc(/C=C/SC=C3CCCCC3)cc2)cc1)=C1CCCCC1`: the emission maximum (in ClCCl) was determined as 433 nm.

In turn, `FC(F)(F)c1ccccc1B1c2ccccc2Nc2ccccc21` yielded an emission maximum (in ClCCl) of 401 nm.

Where the note is “in ClC(Cl)Cl”, `C(#Cc1ccccc1)C(C#Cc1ccccc1)=Cc1ccc2cc(C=C(C#Cc3ccccc3)C#Cc3ccccc3)ccc2c1` gave an emission maximum of 473 nm.

The compound `C1=Cc2ccc3ccccc3c2NB1c1ccccc1` displayed an emission maximum (in C1CCCCC1) of 383 nm.

`C(=C\c1ccncn1)/c1ccc(N(c2ccccc2)c2ccc(/C=C/c3ccncn3)cc2)cc1`: the emission maximum (in ClCCl) was determined as 555 nm.

On to `CCCC1=CC2=C(c3c(C)cc(C)cc3C)c3cc(CCC)c(-c4ccc5ccc6cccc7ccc4c5c67)n3[B-](F)(F)[N+]2=C1c1ccc2ccc3cccc4ccc1c2c34`, for which, under “in ClC(Cl)Cl”, the emission maximum was determined as 626 nm.

Regarding `CCCCC1(c2ccccc2)Nc2c(-c3ccc(N(C)c4ccccc4)cc3)ccc(-c3ccc(N(C)c4ccccc4)cc3)c2N=C1c1ccccc1` (stereo unspecified), the emission maximum by setting is: (in C1CCOC1) 580 nm; (in CC#N) 602 nm; (in CCCCCC) 553 nm; (in CN(C)C=O) 603 nm; (in Cc1ccccc1) 573 nm; (in ClC(Cl)Cl) 589 nm.

Regarding `CCCCCCCCCCCCC1(CCCCCCCCCCCC)c2cc(-c3ccc(C=C4C(=O)c5ccccc5C4=O)cc3)ccc2-c2ccc(-c3ccc(C=C4C(=O)c5ccccc5C4=O)cc3)cc21`, the emission maximum by setting is: (in C1CCOC1) 531 nm; (in CC(C)=O) 566 nm; (in CCCCCC) 463 nm; (in CS(C)=O) 598 nm; (in Cc1ccccc1) 490 nm; (in ClC(Cl)Cl) 529 nm.

The compound `Cc1cc(C)c([B-]2(c3c(C)cc(C)cc3C)[O+]=P(c3ccccc3)(c3ccccc3)c3cc(-c4ccc(N(C)C)cc4)sc3-c3sc(-c4ccc(N(C)C)cc4)cc32)c(C)c1` came in with an emission maximum (in C1CCOC1) of 552 nm.

In turn, `CCCCN(CCCC)c1ccc(/C=C/c2ccc3nc(/C=C/c4nc5ccc(/C=C/c6ccc(N(CCCC)CCCC)cc6)cc5n(CCC)c4=O)c(=O)n(CCC)c3c2)cc1` had an emission maximum (in C1COCCO1) of 630 nm and an emission maximum (in ClCCl) of 736 nm.

Take `COc1ccc(/C=C(\C)c2nc3ccccc3s2)cc1`: the emission maximum by setting is: (in C1CCCCC1) 400 nm; (in CO) 420 nm.
